Target: T1, Isoform 2 of Nuclear receptor ROR-gamma (RORgT) (Homo sapiens, UniProt P51449)
T1 sequence (P51449 whole entry): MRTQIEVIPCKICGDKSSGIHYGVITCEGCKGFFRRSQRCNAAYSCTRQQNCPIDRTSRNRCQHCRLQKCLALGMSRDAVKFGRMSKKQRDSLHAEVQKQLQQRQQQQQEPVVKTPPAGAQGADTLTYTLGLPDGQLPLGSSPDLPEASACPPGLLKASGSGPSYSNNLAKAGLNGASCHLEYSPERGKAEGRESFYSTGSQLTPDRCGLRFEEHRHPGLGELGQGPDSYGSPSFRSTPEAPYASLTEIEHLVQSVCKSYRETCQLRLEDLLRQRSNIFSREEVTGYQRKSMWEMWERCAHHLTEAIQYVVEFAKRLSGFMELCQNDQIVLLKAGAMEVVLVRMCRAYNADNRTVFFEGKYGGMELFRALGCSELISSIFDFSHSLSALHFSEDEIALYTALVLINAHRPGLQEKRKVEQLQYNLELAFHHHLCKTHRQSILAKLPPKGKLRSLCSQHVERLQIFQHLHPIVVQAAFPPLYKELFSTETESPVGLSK
Test: TR-FRET Assay
Conditions: pH 7; 4 °C
Experimental: To identify novel antagonists of RORgammaT, an assay was developed which employs the interaction of RORgammaT with its co-activator peptide SRC1_2. […] The RORγ-LBD protein was purified by glutathione sepharose chromatography. […] The mixture was then diluted in assay buffer (50 mM Tris pH 7.0, 50 mM KCl, 1 mM EDTA, 0.1 mM DTT) to obtain RORγ-LBD final concentration of 3 nM in 384-well assay plate. Compounds to be tested were injected to the assay plate using Acoustic Droplet Ejection technology by Echo 550 liquid handler (Labcyte, Calif.).

CC1CC(c2nn(C(=O)c3c(Cl)cccc3C(F)(F)F)c3cccc(F)c23)=CC(O)C1C(=O)O (stereo unspecified) [US9487490, 6C]
IC50: 5 nM
